Data taken from patent publication US6479435B1, “Diaryl ethers and processes for their preparation and herbicidal and desiccant compositions containing them” (ISK Americas Incorporated, priority 1997, dated 2002).
One block for each compound: values may come before it.

Experiments:
Grass Weeds [1] = assay: Pre-emergent application in combination with other herbicides, percent control of grass weeds; assay type: in vivo; details: 1121 g ai/ha
Description: (§1) All plants were grown in 10 cm square plastic pots which were filled with a sandy loam soil mix. For preemerge tests, seeds were planted one day prior to application of the test compounds. Immediately after application, test units of the pre-emerge applications were watered at the soil surface to incorporate the test materials. Subsequently, these test units were bottom-watered.
(§2) All test compounds were dissolved in acetone and applied to the test units in a volume of 187 l/ha. […] Plants were arranged on a shelf so that the top of the canopy (post-emerge) or top of the soil surface (pre-emerge) was 40-45 cm below the nozzle. Pressurized air was used to force the test solution through the nozzle as it was mechanically advanced (via electrically driven chain drive) over the top of all test plants/pots. This application simulates a typical commercial field herbicide application.
(§3) At 14 days after application of the test materials, phytotoxicity ratings were recorded. A rating scale of 0-100 was used as previously described in Research Methods in Weed Science, 2nd edition, B. Truelove, Ed., Southern Weed Science Society, Auburn University, Auburn, Ala., 1977. Briefly, “0” corresponds to no damage and “100” corresponds to complete death of all plants in the test unit. This scale was used both to determine efficacy against weed species and damage to crop species. Herbicide activity data for various compounds of this invention, which are shown by compound number in Tables 1-9, are shown in Tables 13 and 14.
(§4) (Note: Weed species abbreviations are from the Composite List of Weeds published by the Weed Science Society of America, 1989.)
The following examples illustrate the utility of combinations of compounds of this invention and existing herbicides. The methods used are identical to those for the application of single compounds except the commercial formulations of existing herbicides were added to the spray mixture in the appropriate amounts before spraying.
Combination Example 1. Pre-emergent Application of Compound 9-1 with Metolachlor
(§5) Combination Example 2. Pre-emergent Application of Compound 9-1 with Dimethenamid

Broadleaf Weeds [2] = assay: Pre-emergent application in combination with other herbicides, percent control of broadleaf weeds; assay type: in vivo
Description: as §1, §2, §3, §4
The following examples illustrate the utility of combinations of compounds of this invention and existing herbicides. The methods used are identical to those for the application of single compounds except the commercial formulations of existing herbicides were added to the spray mixture in the appropriate amounts before spraying. […]
as §5

Grass Weeds [3] = assay: Post-emergent application in combination with other herbicides, percent control of grass weeds; assay type: in vivo
Description: All test compounds were dissolved in acetone and applied to the test units in a volume of 187 l/ha. Test materials were applied at rates ranging from 125 g ai/ha to 1000 g ai/ha using a track sprayer equipped with a TJ8001E even flow flat fan spray nozzle. Plants were arranged on a shelf so that the top of the canopy (post-emerge) or top of the soil surface (pre-emerge) was 40-45 cm below the nozzle. Pressurized air was used to force the test solution through the nozzle as it was mechanically advanced (via electrically driven chain drive) over the top of all test plants/pots. This application simulates a typical commercial field herbicide application. In the post-emerge test, a commercial non-ionic surfactant was also included (0.25% v/v) to enhance wetting of the leaf surfaces Qf target plants at rates ranging from 63 g ai/ha to 1000 g ai/ha. For post-emerge tests, seeds were planted 8-21 days prior to the test to allow emergence and good foliage development prior to application of the test substances. At the time of the post-emerge application, plants of all species were usually at the 2-3 leaf stage of development. Post-emerge test units were always bottom-watered. At 14 days after application of the test materials, phytotoxicity ratings were recorded. A rating scale of 0-100 was used as previously described in Research Methods in Weed Science, 2nd edition, B. Truelove, Ed., Southern Weed Science Society, Auburn University, Auburn, Ala., 1977. Briefly, “0” corresponds to no damage and “100” corresponds to complete death of all plants in the test unit. This scale was used both to determine efficacy against weed species and damage to crop species. Herbicide activity data for various compounds of this invention, which are shown by compound number in Tables 1-9, are shown in Tables 13 and 14. […] (Note: Weed species abbreviations are from the Composite List of Weeds published by the Weed Science Society of America, 1989.) The following examples illustrate the utility of combinations of compounds of this invention and existing herbicides. The methods used are identical to those for the application of single compounds except the commercial formulations of existing herbicides were added to the spray mixture in the appropriate amounts before spraying. Combination Example 3. Post-emergent Application of Compound 9-1 with Nicosulfuron Combination Example 4. Postemergent Application of Compound 9-1 with Pyridate

Broadleaf Weeds [4] = assay: Post-emergent application in combination with other herbicides, percent control of broadleaf weeds; assay type: in vivo
Description: All test compounds were dissolved in acetone and applied to the test units in a volume of 187 l/ha. Test materials were applied at rates ranging from 125 g ai/ha to 1000 g ai/ha using a track sprayer equipped with a TJ8001E even flow flat fan spray nozzle. Plants were arranged on a shelf so that the top of the canopy (post-emerge) or top of the soil surface (pre-emerge) was 40-45 cm below the nozzle. Pressurized air was used to force the test solution through the nozzle as it was mechanically advanced (via electrically driven chain drive) over the top of all test plants/pots. This application simulates a typical commercial field herbicide application. […] For post-emerge tests, seeds were planted 8-21 days prior to the test to allow emergence and good foliage development prior to application of the test substances. At the time of the post-emerge application, plants of all species were usually at the 2-3 leaf stage of development. Post-emerge test units were always bottom-watered. At 14 days after application of the test materials, phytotoxicity ratings were recorded. A rating scale of 0-100 was used as previously described in Research Methods in Weed Science, 2nd edition, B. Truelove, Ed., Southern Weed Science Society, Auburn University, Auburn, Ala., 1977. Briefly, “0” corresponds to no damage and “100” corresponds to complete death of all plants in the test unit. This scale was used both to determine efficacy against weed species and damage to crop species. Herbicide activity data for various compounds of this invention, which are shown by compound number in Tables 1-9, are shown in Tables 13 and 14. […] (Note: Weed species abbreviations are from the Composite List of Weeds published by the Weed Science Society of America, 1989.) The following examples illustrate the utility of combinations of compounds of this invention and existing herbicides. The methods used are identical to those for the application of single compounds except the commercial formulations of existing herbicides were added to the spray mixture in the appropriate amounts before spraying. Combination Example 3. Post-emergent Application of Compound 9-1 with Nicosulfuron Combination Example 4. Postemergent Application of Compound 9-1 with Pyridate

SMILES: COCC(C)N(C(=O)CCl)c1c(C)csc1C (centres unmarked) [Dimethenamid, reference compound]
- Percent Control of Grass Weeds DIGSA (Grass Weeds [1]; Combination Example 2): 100%
- Percent Control of Grass Weeds ECHCG (Grass Weeds [1]; Combination Example 2): 100%
- Percent Control of Grass Weeds SETVI (Grass Weeds [1]; Combination Example 2): 100%
- Percent Control of Grass Weeds SORHA (Grass Weeds [1]; Combination Example 2): 100%
- Percent Control of Broadleaf Weeds ABUTH (Broadleaf Weeds [2]; 520 g ai/ha): 40%
- Percent Control of Broadleaf Weeds AMARE (Broadleaf Weeds [2]; 520 g ai/ha): 100%
- Percent Control of Broadleaf Weeds AMBEL (Broadleaf Weeds [2]; 520 g ai/ha): 40%
- Percent Control of Broadleaf Weeds CASOB (Broadleaf Weeds [2]; 520 g ai/ha): 40%
- Percent Control of Broadleaf Weeds CHEAL (Broadleaf Weeds [2]; 520 g ai/ha): 30%
- Percent Control of Broadleaf Weeds IPOHE (Broadleaf Weeds [2]; 520 g ai/ha): 0%

SMILES: CCCCCCCCSC(=O)Oc1cc(Cl)nnc1-c1ccccc1 [Pyridate, reference compound]
- Percent Control of Grass Weeds DIGSA (Grass Weeds [3]; 527 g ai/ha): 10%
- Percent Control of Grass Weeds ECHCG (Grass Weeds [3]; 527 g ai/ha): 50%
- Percent Control of Grass Weeds SETVI (Grass Weeds [3]; 527 g ai/ha): 95%
- Percent Control of Grass Weeds SORHA (Grass Weeds [3]; 527 g ai/ha): 10%
- Percent Control of Broadleaf Weeds ABUTH (Broadleaf Weeds [4]; 527 g ai/ha): 60%
- Percent Control of Broadleaf Weeds AMARE (Broadleaf Weeds [4]; 527 g ai/ha): 90%
- Percent Control of Broadleaf Weeds AMBEL (Broadleaf Weeds [4]; 527 g ai/ha): 40%
- Percent Control of Broadleaf Weeds CASOB (Broadleaf Weeds [4]; 527 g ai/ha): 10%
- Percent Control of Broadleaf Weeds CHEAL (Broadleaf Weeds [4]; 527 g ai/ha): 85%
- Percent Control of Broadleaf Weeds IPOHE (Broadleaf Weeds [4]; 527 g ai/ha): 80%

SMILES: COc1cc(OC)nc(NC(=O)NS(=O)(=O)c2ncccc2C(=O)N(C)C)n1 [Nicosulfuron, reference compound]
- Percent Control of Grass Weeds DIGSA (Grass Weeds [3]; 23 g ai/ha): 80%
- Percent Control of Grass Weeds ECHCG (Grass Weeds [3]; 23 g ai/ha): 95%
- Percent Control of Grass Weeds SETVI (Grass Weeds [3]; 23 g ai/ha): 85%
- Percent Control of Grass Weeds SORHA (Grass Weeds [3]; 23 g ai/ha): 85%
- Percent Control of Broadleaf Weeds ABUTH (Broadleaf Weeds [4]; 23 g ai/ha): 55%
- Percent Control of Broadleaf Weeds AMARE (Broadleaf Weeds [4]; 23 g ai/ha): 70%
- Percent Control of Broadleaf Weeds AMBEL (Broadleaf Weeds [4]; 23 g ai/ha): 0%
- Percent Control of Broadleaf Weeds CASOB (Broadleaf Weeds [4]; 23 g ai/ha): 30%
- Percent Control of Broadleaf Weeds CHEAL (Broadleaf Weeds [4]; 23 g ai/ha): 70%
- Percent Control of Broadleaf Weeds IPOHE (Broadleaf Weeds [4]; 23 g ai/ha): 70%

SMILES: CCc1cccc(C)c1N(C(=O)CCl)C(C)COC (centres unmarked) [Metolachlor, reference compound]
- Percent Control of Grass Weeds DIGSA (Grass Weeds [1]): 100%
- Percent Control of Grass Weeds ECHCG (Grass Weeds [1]): 100%
- Percent Control of Grass Weeds SETVI (Grass Weeds [1]): 100%
- Percent Control of Grass Weeds SORHA (Grass Weeds [1]): 100%
- Percent Control of Broadleaf Weeds ABUTH (Broadleaf Weeds [2]; 1121 g ai/ha): 20%
- Percent Control of Broadleaf Weeds AMARE (Broadleaf Weeds [2]; 1121 g ai/ha): 100%
- Percent Control of Broadleaf Weeds AMBEL (Broadleaf Weeds [2]; 1121 g ai/ha): 30%
- Percent Control of Broadleaf Weeds CASOB (Broadleaf Weeds [2]; 1121 g ai/ha): 10%
- Percent Control of Broadleaf Weeds CHEAL (Broadleaf Weeds [2]; 1121 g ai/ha): 90%
- Percent Control of Broadleaf Weeds IPOHE (Broadleaf Weeds [2]; 1121 g ai/ha): 20%

The next lines start with the values.

- melting point: 277 to 279 °C
SMILES: CCS(=O)(=O)c1cccnc1Oc1cc(-n2c(=O)cc(C(F)(F)F)n(N)c2=O)c(F)cc1Cl [Compound 9-13, 1-Amino-3-[4-Chloro-2-fluoro-5-(3-ethylsulfonyl-2-pyridyloxy)phenyl]-6-trifluoromethyl-1,2,3,4-tetrahydropyrimidine-2,4-dione]

- melting point: 220 to 222 °C
SMILES: N#Cc1ccccc1Oc1cc(-n2c(=O)cc(C(F)(F)F)n(N)c2=O)c(F)cc1Cl [Compound 9-30, 1-Amino-3-[4-chloro2-fluoro-5-(2-cyanophenoxy)phenyl]-6-trifluoromethyl-1,2,3,4-tetrahydropyrimidine-2,4-dione]

- melting point: 276 to 278 °C
SMILES: CS(=O)(=O)c1cccnc1Oc1cc(-n2c(=O)cc(C(F)(F)F)n(N)c2=O)c(F)cc1Cl [Compound 9-19, 1-Amino-3-[4-chloro-2-fluoro-5-(3-methylsulfonyl-2-pyridyloxy)phenyl]-6-trifluoromethyl-1,2,3,4-tetrahydropyrimidine-2,4-dione]

- melting point: 230 to 233 °C
SMILES: N#Cc1c(F)cccc1Oc1cc(-n2c(=O)cc(C(F)(F)F)n(N)c2=O)c(F)cc1Cl [Compound 9-31, 1-Amino-3-[4-chloro-2-fluoro-5-(2-cyano-3-fluorophenoxy)phenyl]-6-trifluoromethyl-1,2,3,4-tetrahydropyrimidine-2,4-dione]
